Reference: patent US9364514B2, “Anti-tumor adjuvant therapy” (Universite Pierre et Marie Curie (Paris 6), priority 2011, dated 2016)

Tests used:
[1] = system: mouse breast tumors from transgenic polyoma Middle-T mice (PyMT model); assay: Therapeutic assay in nude mice bearing xenografted mouse breast tumors (PyMT model); format: in vivo; conditions: 5 mg/kg i.p. daily
Source text: (§1) The primary human xenografts were obtained as previously described (Marangoni et al., 2007). Mouse breast cancer tumors were obtained using the transgenic Polyoma Middle-T Mouse PyMT model. Spontaneously growing mammary tumors occurring in transgenic mice were xenografted into nude immunodeficient mice to allow pharmacological assessments, and maintained from nude mouse to nude mouse serially passages.
(§2) For therapeutic experimental assays, 5- to 8-week old Swiss nu/nu female mice received a subcutaneous graft of tumor fragments with a volume of approximately 15 mm3. Tumors developed at the graft site 2 to 6 weeks later. Mice bearing growing tumors with a volume of 40 to 200 mm^3 were individually identified and randomly assigned to the control or treatment groups (10 animals in each group) and treatments were started on day 1. Mice were weighed twice a week. Tumour-bearing mice were sacrificed when the tumor volume reached 2500 mm^3, defined as the ethical limit. Tumor volumes and antitumor activity were evaluated as previously reported (Nemati et al. 2009. Anti Cancer Drugs 20, pages 932-940).
The anti-tumoral effect of the mouse peptide DPT-C9 was analyzed in nude mice bearing xenograft mouse breast tumors obtained from the transgenic polyoma Middle-T mice. […]

breast cancer model BC52 = assay: Therapeutic assay in mice bearing primary human breast cancer xenograft BC52; format: in vivo, Swiss nu/nu female mice
Source text: as §1, §2
(§3) DPT-C9h peptide diluted in water/glucose (1 to 25 mg/kg) was given by intraperitoneally route 5 to 7 days per week, according to the models and the therapeutic schedules. Doxorubicin (Teva Pharmaceuticals) and cyclophosphamide (Baxter) were diluted in 0.9% NaCl and administered intraperitoneally at a dose of 2 mg/kg and 100 mg/kg at day 1, respectively.
(§4) The anti-tumoral effect of DPT-C9h was tested in mice bearing breast cancer model BC52 and BC146. DPT-C9h was intraperitoneally administered at 5 mg/kg once daily for 5 weeks.

[2] = system: BC146 human breast cancer model; assay: Therapeutic assay in mice bearing primary human breast cancer xenograft BC146; format: in vivo, Swiss nu/nu female mice
Source text: as §1, §2, §3, §4
The inventors have further tested combined administration of DPT-C9h with doxorubicin and cyclophosphamid chemotherapy. The administration was either simultaneous or sequential: DPT-C9h was then administered at day 20, a stage corresponding to a chemotherapy-induced complete remission.

[3] = system: MDA MB231 breast cancer cell line; assay: Detection of apoptosis by Annexin-V-FITC staining; format: cell-based
Method: (§5) MDA MB231 breast cancer cell line was cultured in DMEM medium supplemented with 10% of FCS.
Apoptotic cells were detected using Annexin-V (-FITC from BD biosciences) as described by the manufacturer. Briefly, the cells were washed in 1× binding buffer, centrifuged and then resuspended in 200 μl of 1× binding buffer containing Annexin V-FITC (0.1 μg/ml) and PI (0.5 μg/ml). After incubation at room temperature in the dark for 10 min, cells were analyzed by flow cytometry. Data acquired by FACSCalibur (BD biosciences) were analyzed with Cellquest Pro software.

[4] = system: MDA MB231 breast cancer cell line; assay: Cytotoxicity assay (MTT); format: cell-based; conditions: 61 h
Method: as §5
The cytotoxicity of chemotherapy and the peptide was assessed by MTT. […] Cells were rinsed with culture medium and incubated with 10 μl MTT (5 mg/ml) in a final volume of 100 μl for 4 h at 37° C. The formation of blue formazan crystals was visualized by microscopy. After this period of incubation, 100 μl of 10% SDS in 10 mM HCl was added to each well and the plate incubated overnight. The absorbance was measured at 570 and 620 nm and the percentage of viable cells to untreated controls was estimated.

[5] = BC52 model, Treatment (Chemo.) = Ovariectomy, DPT-C9h 5 mg/kg i.p. once daily for 5 weeks
[6] = BC146 model, Chemo. = Doxorubicin + cyclophosphamid, DPT-C9h 5 mg/kg i.p.

## VKKKKIKREIKI-YIETLDDILEQWARSEDL (VKKKKIKREIKIYIETLDDILEQWARSEDL; cell penetrating peptide) [DPT-C9]
[1]
  tumor growth inhibition: significant tumor growth inhibition

## VKKKKIKREIKI-YVETLDDIFEQWAHSEDL (VKKKKIKREIKIYVETLDDIFEQWAHSEDL; cell penetrating peptide) [DPT-C9h]
Breast cancer model BC52; BC52, 5 mg/kg i.p. once daily for 5 weeks, end of treatment
  tumor growth inhibition: significant tumor growth inhibition
Breast cancer model BC52; [5]
  OS: Overall survival: 33%
  RTV: Relative tumor volume: 0.70
[2]; BC146, 5 mg/kg i.p. once daily for 5 weeks, end of treatment
  tumor growth inhibition: significant tumor growth inhibition
[2]; [6]
  OS: Overall survival: 27%
  RTV: Relative tumor volume: 20.2
[2]; DPT-C9h combined with doxorubicin and cyclophosphamid, simultaneous or sequential (from day 20), versus chemotherapy alone
  tumor relapse: delayed tumor relapse better than chemotherapy alone
[2]; Treatment (Chemo.) = Doxorubicin 2 mg/kg + cyclophosphamid 100 mg/kg i.p. day 1, DPT-C9h simultaneous or from day 20
  CR: Complete remission: 0%
[3]; 5FU 10 μM 24 h, then 25 or 50 μM DPT-C9h for 24 further h
  apoptosis (annexin staining), combination effect: synergistic apoptotic effect
[3]; cisplatin 10 μM 24 h, then increasing doses of DPT-C9h for 24 further h
  apoptosis (annexin staining), combination effect: synergistic apoptotic effect
[3]; different doses of DPT-C9h + doxorubicin 0.25 μM, 24 h
  apoptosis (annexin staining), combination effect: synergistic effect on apoptosis
[3]; docetaxel 0.5 μM + 10 and 25 μM DPT-C9h, 24 h
  apoptosis (annexin staining), combination effect: synergistic apoptotic effect
[4]; different doses of 5FU + DPT-C9h 10 μM
  cell survival (MTT): low cell survival
[4]; different doses of cisplatin + DPT-C9h 10 μM
  cell survival (MTT): low level of cell survival
[4]; different doses of docetaxel + DPT-C9h 10 μM, versus docetaxel only
  cell survival (MTT): low survival
